Reference: patent publication US7166597B2, “Fused pyrazole derivatives being protein kinase inhibitors” (Glaxo Group Limited, priority 2000, dated 2007)
Read-outs that look alike come from different tables or passages of the source.

How the values were obtained:
p38 kinase = molecular target: T1, p38 kinase (Homo sapiens, UniProt Q16539); assay: p38 Kinase Assay; format: biochemical
T1 construct: GST (N); made in house; host or cells: E. coli
Experimental: The peptide substrate used in the p38 assay was biotin-IPTSPITTTYFFFRRR-amide. The p38 and MEK6 proteins were purified to homogeneity from E. coli expression systems. The fusion proteins were tagged at the N-terminus with Glutathione-S-Transferase (GST). The maximum activation was achieved by incubating 20 uL of a reaction mixture of 30 nM MEK6 protein and 120 nM p38 protein in the presence of 1.5 uM peptide and 10 mM Mg (CH3CO2)2 in 100 mM HEPES7 pH 7.5, added to 15 uL of a mixture of 1.5 uM ATP with 0.08 uCi [g-^33P]ATP, with or without 15 uL of inhibitor in 6% DMSO. The controls were reactions in the presence (negative controls) or absence (positive controls) of 50 mM EDTA. Reactions were allowed to proceed for 60 min at room temperature and quenched with addition of 50 uL of 250 mM EDTA and mixed with 150 uL of Streptavidin SPA beads (Amersham) to 0.5 mg/reaction. The Dynatech Microfluor white U-bottom plates were sealed and the beads were allowed to settle overnight. The plates were counted in a Packard TopCount for 60 seconds. IC50 values were obtained by fitting raw data to % I=100*(1−(I−C2)/(C1−C2)), where I was […], C1 was positive control, and C2 was negative control.

[1] = molecular target: T2, JNK3 kinase (Jnk-3alpha-2) (Homo sapiens, UniProt P53779); assay: JNK3 Kinase Assay; format: biochemical; conditions: Table 8; read-out: JNK3 kinase (inhibition of JNK3 kinase, IC50)
T2 construct: Jnk-3alpha-2 (as a truncated construct, residues 39 to 224) was expressed in E. coli as a GST fusion protein; Following purification the GST portion was removed by thrombin cleavage; fused on or other part: An N-terminal GST tag was used for expression and removed by thrombin cleavage before the assay
Experimental: JNK3 Kinase Assay Jnk-3alpha-2 (as a truncated construct, residues 39 to 224) was expressed in E. coli as a GST fusion protein. Following purification the GST portion was removed by thrombin cleavage. The enzyme was stored at −80° C. Substrate c-Jun was expressed as a GST fusion protein including a signal peptide (biotinylation site) in E. coli. Following purification the substrate was biotinylated on a specific lysine in the signal peptide using biotin ligase. Prior to assay Jnk-3 was pre-activated by incubation with MgATP. The enzyme (10 nM) was screened in 40 mM HEPES (pH 7.4), 150 mM NaCl, 20 mM glycerophosphate, 1 mM DTT, 0.2 mM vanadate, 200 nM biotin-c-Jun, 5 mM MgCl2 and 10 uM ATP. Inhibitors were added over a conc range of from 0 to 10 uM in DMSO (fc 3%). The reaction was stopped by the addition of 25 mM EDTA. Phospho-c-Jun was detected using homogeneous time resolved fluorescence (HTRF) with a Eu-labelled antiphosphoserine (Serine 73) and streptavidin APC.

[2] = tested on: TNF release from human peripheral blood mononuclear cells (PBMNC); assay: Cell Based Assay for Cytokines Production in PBMNC (TNF release after LPS); conditions: PBMC, read-out: TNF/PBMNC (inhibition of TNF release from human PBMNC following stimulation with LPS, IC50)
Experimental: Cell Based Assay for Cytokines Production in PBMNC
Human peripheral blood mononuclear cells were isolated from heparinized blood by LSM (Organon Teknika) from volunteer donors. Purified human peripheral blood mononuclear cells were then suspended at a concentration of 2×10^6 cells/ml in RPMI 1640 medium supplemented with 10% heat-inactivated FBS and 1% antibiotics. Aliquots of 100 μl (2×10^5 cells) were added to 96-well microliter plates. Test compounds at […] dose ranges (final-DMSO concentration in culture medium was 0.1%) were then added to the cells for 10–15 minutes before the addition of lipopolysaccharide (1 ng/ml). After incubation at 37° C. in a 5% CO2 incubator for 18–20 h, cell free supernatants were collected by centrifugation at 800 g. The supernatant was then assayed for the amount of TNFα and IL-1β by using Quantikine immunoassay kits developed by R&D Systems (Minneapolis, Minn.).

[3] = tested on: serum TNFα elevation in mice treated with lipopolysaccharide (LPS); assay: Murine LPS-Stimulated Serum TNF Inhibition; format: in vivo; conditions: Mus musculus, 1.5 h, dose 30 mpk, read-out: % inh. (dose): % inhibition of murine TNF production in mice following an LPS challenge
Experimental: Murine LPS—Stimulated Serum TNF Inhibition Protocol
The potency of compounds of the invention as inhibitors of serum TNFα elevation in mice treated with lipopolysaccharide (LPS) was determined as follows; a) for subcutaneous (s.c.) administration, test compound was dissolved in DMSO and added to a mixture of 0.9% sodium chloride solution and 30% Trappsol HPB-20 (Cyclodextrin Technology Development Inc., Gainesville, Fla. USA) for a final DMSO concentration of 1%. The dosing solution was sonicated briefly and 0.2 mL was injected subcutaneously 10 min prior to LPS injection; b) for per oral (p.o.) administration, test compounds were formulated in 0.2 mL of PBS and 0.1% Tween 80 and given orally via gavage 10 min prior to LPS administration.
C3/hen female mice were injected intraperitoneally with 200 μg/kg LPS (Escherichia coil, Serotype 0111:B4, Sigma Chemical Co, St. Louis, Mo.) in PBS and sacrificed 90 min later by CO2 asphyxiation. Blood was immediately taken from the caudal vena cava and plasma prepared and frozen at −80° C. Plasma concentrations of TNF were measured by ELISA (Genzyme Co., Cambridge Mass.).

[4] = Cell Based Efficacy (MTT Assay), cytotoxicity toward HFF; conditions: human, HFF cells (human foreskin fibroblasts), Table 7, HFF cell line
Experimental: Cell Based Efficacy (MTT Assay)
The potency of compounds of the invention are tested for their ability to inhibit cell proliferation and cell viability. The metabolic conversion of 3-(4,5-dimethylthiazol-2-yl)-2,5-diphenyltetrazolium bromide (MTT, Sigma #M2128) to a reduced form was a commonly used measure of cellular viability. Following was the procedure:
Cells are maintained in 75 cm^2 tissue culture flasks until ready for use. The cells are grown and plated for the assay in Dulbecco's modified Eagle's media containing 10% fetal bovine serum. For example, the following cell lines can be used: a) human foreskin fibroblasts (HFF), b) HT29 (human colon carcinoma cell line), c) MDA-MB468 (human breast carcinoma cell line), d) RKO (human colon adenocarcinoma cell line), e) SW620 (human colon carcinoma cell line), f) A549 (human lung carcinoma cell line), and g) MIA PACA (human pancreatic carcinoma cell line). Cells are maintained at 37° C. in 10% CO2, 90% humidified air. Cells are plated in 96-well tissue culture plates at the densities listed below (Table 6). 100 μL of cell suspension was added to each well of the 96-well plate except the top row of the plate which contains no cells and serves as a reference for the spectrophotometer.
Cells are incubated overnight in Dulbecco's modified Eagle's media containing 10% fetal bovine serum at 37° C. in 10% CO2, 90% humidified air prior to dosing. Cells are dosed in 10 sequential 3-fold dilutions starting at 30 μM depending upon the solubility of the compound. Compounds with solubilities of less than 30 μM are dosed at the highest soluble concentration. Stock solutions of compounds are made in 100% dimethyl sulfoxide (DMSO). Stock solutions are diluted in Dulbecco's modified Eagle's media containing 100 ug/mL gentamicin and 0.3 to 0.6% DMSO at the twice the highest concentration to be placed on the cells. If compounds have been dissolved in DMSO the final concentration of DMSO on the cells was kept below 0.3%. 3-fold serial dilutions are performed on each compound to prepare 10 concentrations of the compound for dosing. 100 μL of diluted compound was added to the 100 μL of media currently on the dish. For each concentration of compound, 2–4 replicate wells are prepared.
Cells are returned to incubator and allowed to proliferate in the presence of compound for 72 h before addition of MTT. MTT was prepared in phosphate buffered saline (Irvine Scientific #9240) at a concentration of 2 mg/mL. 50 μL per well of MTT solution was added to the 200 μL of media to yield a final concentration of 0.4 mg/mL and plates are returned to the incubator for 4 h. After 4 h incubation the media, compound and MTT mixture was aspirated from the plates and 100 μL of 100% DMSO was added to each well in addition to 25 uL of Sorenson's Buffer (0.1M glycine, 0.1M NaCl, pH 10.5). Quantitation of metabolic reduction of MTT in each plate was performed by reading optical density at 570 nm wavelength on a Molecular Devices UV max microplate reader. Growth inhibition curves and 50% inhibitory concentrations are determined using Microsoft Excel.

[5] = Table 8, compounds wherein Z is N, read-out: p38 kinase (inhibition of p38 kinase, IC50)
[6] = Table 7, compounds wherein Z is CH, read-out: P38 kinase (inhibition of p38 kinase, IC50)

T2 sequence (P53779 39-402 limits assumed): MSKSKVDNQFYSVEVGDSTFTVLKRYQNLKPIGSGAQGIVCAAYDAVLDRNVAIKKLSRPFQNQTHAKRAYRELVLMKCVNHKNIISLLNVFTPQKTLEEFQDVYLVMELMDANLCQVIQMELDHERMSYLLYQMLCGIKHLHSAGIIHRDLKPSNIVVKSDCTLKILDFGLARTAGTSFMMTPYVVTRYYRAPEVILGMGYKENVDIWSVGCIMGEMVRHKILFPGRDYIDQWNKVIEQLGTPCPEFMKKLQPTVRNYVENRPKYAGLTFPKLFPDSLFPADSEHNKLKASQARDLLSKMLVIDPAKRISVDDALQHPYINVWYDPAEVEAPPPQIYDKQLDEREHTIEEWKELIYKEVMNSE
T1 sequence (Q16539 whole entry): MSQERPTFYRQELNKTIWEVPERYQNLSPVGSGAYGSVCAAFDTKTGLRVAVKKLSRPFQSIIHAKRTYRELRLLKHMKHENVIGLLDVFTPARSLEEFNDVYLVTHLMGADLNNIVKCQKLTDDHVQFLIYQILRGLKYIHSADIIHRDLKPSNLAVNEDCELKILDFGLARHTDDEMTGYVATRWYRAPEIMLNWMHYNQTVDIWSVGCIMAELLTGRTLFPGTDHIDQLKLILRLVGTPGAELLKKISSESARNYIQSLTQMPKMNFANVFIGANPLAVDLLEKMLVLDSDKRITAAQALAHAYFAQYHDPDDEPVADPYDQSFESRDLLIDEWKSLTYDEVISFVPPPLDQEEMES

SMILES | IC50 (p38 kinase; [5]) | IC50 [1] | IC50 ([2]; Table 8, LPS stimulation) | IC50 (p38 kinase; [6]) | IC50 ([2]; Table 7, LPS stimulation) | inhibition in vivo at 30 mg/kg ([3]; Table 8, LPS challenge) | inhibition in vivo at 30 mg/kg ([3]; Table 7, LPS challenge) | IC50 at 72 h [4]
N#Cc1ccc2c(-c3ccnc(NC4CC4)n3)c(-c3ccc(F)cc3)nn2c1 [Example 73, N-Cyclopropyl-4-[6-cyano-2-(4-fluorophenyl)pyrazolo[1,5-a]pyridin-3-yl]-2-pyrimidinamine] | < 500 nM | < 500 nM | < 500 nM |  |  | 52% |  | 
CCCCNc1nccc(-c2c(-c3ccc(F)cc3)nn3ccccc23)n1 [Example 60, N-Butyl-4-[2-(4-fluorophenyl)pyrazolo[1,5-a]pyridin-3-yl]-2-pyrimidin-amine] | < 500 nM |  | < 500 nM |  |  | 88% |  | 
Fc1ccc(-c2nn3ccccc3c2-c2ccnc(NCc3ccccn3)n2)cc1 [Example 82, 4-[2-(4-Fluorophenyl)pyrazolo[1,5-a]pyridin-3-yl]-N-(2-pyridinylmethyl)-2-pyrimidinamine] | < 500 nM |  | < 500 nM |  |  | 87% |  | 
Fc1ccc(-c2nn3cc(C(F)(F)F)ccc3c2-c2ccnc(NC3CC3)n2)cc1 [Example 68, N-Cyclopropyl-4-[2-(4-fluorophenyl)-6-trifluoromethylpyrazolo[1,5-a]pyridin-3-yl]-2-pyrimidinamine] | < 500 nM | < 500 nM | < 500 nM |  |  | 24% |  | 
CC(C)Nc1nccc(-c2c(-c3ccc(F)cc3)nn3cc(C(F)(F)F)ccc23)n1 [Example 69, 4-[2-(4-Fluorophenyl)-6-trifluoromethylpyrazolo[1,5-a]pyridin-3-yl]-N-(2-propyl)-2-pyrimidinamine] | < 500 nM |  | < 500 nM |  |  | 45% |  | 
NC(=O)c1ccc2c(-c3ccnc(NC4CC4)n3)c(-c3ccc(F)cc3)nn2c1 [Example 75, 2-(4-Fluorophenyl)-3-(4-(2-cyclopropylamino)pyrimidinyl)-6-pyrazolo-[1,5-a]pyridinylcarboxamide] |  | < 500 nM | < 500 nM |  |  | 90% |  | 

Second part, led by results:

IC50 (p38 kinase; [5]) | IC50 [1] | IC50 ([2]; Table 8, LPS stimulation) | IC50 (p38 kinase; [6]) | IC50 ([2]; Table 7, LPS stimulation) | SMILES | inhibition in vivo at 30 mg/kg ([3]; Table 8, LPS challenge) | inhibition in vivo at 30 mg/kg ([3]; Table 7, LPS challenge) | IC50 at 72 h [4]
 |  |  | 500 to 5000 nM | 500 to 5000 nM | COc1ccn2nc(-c3ccc(F)cc3)c(-c3ccncc3)c2c1 [Example 5, 2-(4-Fluorophenyl)-5-methoxy-3-(4-pyridinyl)pyrazolo[1,5-a]pyridine] |  | 11% | 
 |  |  | < 500 nM | < 500 nM | Fc1ccc(-c2nn3ccccc3c2-c2ccncc2)cc1 [Example 1, 2-(4-Fluorophenyl)-3-(4-pyridyl)-pyrazolo[1,5-a]pyridine] |  | 65% | > 50 µM
 |  |  | < 500 nM | < 500 nM | Fc1ccc(-c2nn3ccccc3c2-c2ccnc(NCc3cccnc3)c2)cc1 [Example 37, 4-[2-(4-Fluorophenyl)pyrazolo[1,5-a]pyridin-3-yl]-N-(3-pyridinylmethyl)-2-pyridinamine] |  |  | 5 to 50 µM
< 500 nM |  | < 500 nM |  |  | Nc1nccc(-c2c(-c3ccc(F)cc3)nn3ccccc23)n1 [Example 64, 4-[2-(4-Fluorophenyl)pyrazolo[1,5-a]pyridin-3-yl]-2-pyrimidinamine] | 62% |  | 
 |  |  |  | < 500 nM | Fc1ccc(-c2nn3ccccc3c2-c2ccnc(NCc3ccc(Cl)cc3)c2)cc1 [Example 31, N-(4-Chlorobenzyl)-4-[2-(4-fluorophenyl)pyrazolo[1,5-a]pyridin-3-yl]-2-pyridinamine] |  | 42% | 
 |  |  | < 500 nM | < 500 nM | Nc1ncccc1C(=O)OCc1ccn2nc(-c3ccc(F)cc3)c(-c3ccncc3)c2c1 [Example 16, [2-(4-Fluorophenyl)-3-(4-pyridinyl)pyrazolo[1,5-a]pyridin-5-yl]methyl 2-aminonicotinate] |  |  | > 50 µM
< 500 nM |  | < 500 nM |  |  | CSc1nccc(-c2c(-c3ccc(F)cc3)nn3ccccc23)n1 [Example 57, 2-(4-Fluorophenyl)-3-(4-(2-methylthio)pyrimidinyl)pyrazolo[1,5-a]-pyridine] | 56% |  | 
